Results from US9394299B2, “Rilyazine derivatives and compositions for the treatment of cancer” (Warner Babcock Institute for Green Chemistry, LLC, priority 2013, dated 2016).
Entries after “also recorded” stand apart in the source; their conditions may differ.

Experiments:
MCF7 (Breast Cancer) = test: NCI five point dosing, MCF7; assay type: cell-based; conditions: Homo sapiens
Procedure: (§1) RL-4 was evaluated against the 60 cell panel at five concentration levels, 10^−8 M, 10^−7 M, 10^−6 M, 10^−5 M and 10^−4 M.
(§2) The human tumor cell lines of the cancer screening panel are grown in RPMI 1640 medium containing 5% fetal bovine serum and 2 mM L-glutamine. Cells are inoculated into 96 well microtiter plates in 100 μL at plating densities ranging from 5,000 to 40,000 cells/well depending on the doubling time of individual cell lines. After cell inoculation, the microtiter plates are incubated at 37° C., 5% CO2, 95% air and 100% relative humidity for 24 h prior to addition of experimental drugs. […]
(§3) Following drug addition, the plates are incubated for an additional 48 h at 37° C., 5% CO2, 95% air, and 100% relative humidity. […] Bound stain is subsequently solubilized with 10 mM trizma base, and the absorbance is read on an automated plate reader at a wavelength of 515 nm. […]
(§4) The percentage growth is calculated at each of the five drug concentrations levels using the seven absorbance measurements, namely absorbance at time zero (Tz), absorbance of control after incubation (C), and absorbance of test sample after incubation in the presence of drug at each of the five concentration levels (Ti). The Growth Percent is calculated as it was for the 1 dose assay: Growth Percent=[(Ti−Tz)/(C−Tz)]×100 for cell line/drug combinations for which Ti≧Tz. […]

COLO 205 (Colon Cancer) = test: NCI five point dosing, COLO 205; assay type: cell-based; conditions: Homo sapiens, read-out: LC50 (the source's name)
Procedure: as §1, §2, §3, §4

TK-10 (Renal Cancer) = test: NCI single point 10 μM, TK-10; assay type: cell-based, human; conditions: 10^−5 M
Procedure: (§5) The screening is a two-stage process, beginning with the evaluation of all compounds against 60 cell lines at a single dose of 10^−5 M.
as §2, §3
For the 1-dose 60 cell testing, the Growth Percent is calculated for each cell line/drug combination from the absorbance measurement for the no-drug control (C), the absorbance at time zero (Tz) and the absorbance measurement after incubation of the cells in the presence of drug (Ti): Growth Percent=[(Ti−Tz)/(C−Tz)]×100 for cell line/drug combinations for which Ti≧Tz. […]

[1] = test system: 60 cell lines (human tumor cell lines of the cancer screening panel); test: NCI 60 cell line screening, five point dosing (SRB); assay type: cell-based
Procedure: as §1
(§6) The human tumor cell lines of the cancer screening panel are grown in RPMI 1640 medium containing 5% fetal bovine serum and 2 mM L-glutamine. Cells are inoculated into 96 well microtiter plates in 100 μL at plating densities ranging from 5,000 to 40,000 cells/well depending on the doubling time of individual cell lines. After cell inoculation, the microtiter plates are incubated at 37° C., 5% CO2, 95% air and 100% relative humidity for 24 h prior to addition of experimental drugs.
(§7) After 24 h, two plates of each cell line are fixed in situ with TCA, to represent a measurement of the cell population for each cell line at the time of drug addition Time Zero (Tz). Experimental drugs are solubilized in dimethyl sulfoxide:glycerol 9:1 at 400-fold the desired final maximum test concentration and stored frozen at −70° C. prior to use. At the time of drug addition, an aliquot of frozen concentrate is thawed and diluted to twice the desired final maximum test concentration with complete medium containing 50 μg/ml gentamicin. Additional four, 10-fold or ½ log serial dilutions are made to provide a total of five drug concentrations plus control. Aliquots of 100 μl of these different drug dilutions are added to the appropriate microtiter wells already containing 100 μl of medium, resulting in the required final drug concentrations.
(§8) Positive control is prepared by adding the known anti-tumor agent adriamycin, NSC 123127, prepared and stored the same as the compounds for testing.
(§9) Following drug addition, the plates are incubated for an additional 48 h at 37° C., 5% CO2, 95% air, and 100% relative humidity. For adherent cells, the assay is terminated by the addition of cold TCA. Cells are fixed in situ by the gentle addition of 50 μl of cold 50% (w/v) TCA (final concentration, 10% TCA) and incubated for 60 minutes at 4° C. The supernatant is discarded, and the plates are washed five times with tap water and air dried. Sulforhodamine B (SRB) solution (100 μl) at 0.4% (w/v) in 1% acetic acid is added to each well, and plates are incubated for 10 minutes at room temperature. After staining, unbound dye is removed by washing five times with 1% acetic acid and the plates are air dried. Bound stain is subsequently solubilized with 10 mM trizma base, and the absorbance is read on an automated plate reader at a wavelength of 515 nm. For suspension cells, the methodology is the same except that the assay is terminated by fixing settled cells at the bottom of the wells by gently adding 50 μl of 80% TCA (final concentration, 16% TCA).
The percentage growth is calculated at each of the five drug concentrations levels using the seven absorbance measurements, namely absorbance at time zero (Tz), absorbance of control after incubation (C), and absorbance of test sample after incubation in the presence of drug at each of the five concentration levels (Ti). The Growth Percent is calculated as it was for the 1 dose assay: Growth Percent=[(Ti−Tz)/(C−Tz)]×100 for cell line/drug combinations for which Ti≧Tz. Growth Percent=[(Ti−Tz)/Tz]×100 for cell line/drug combinations for which Ti<Tz.
For the 5-dose 60 cell testing, three dose-response parameters are determined for each experimental agent. These parameters are Growth Inhibition of 50% (GI50), drug concentration resulting in Total Growth Inhibition (TGI), and concentration resulting in 50% lethality (LC50).
Growth inhibition of 50% (GI50) is determined as the drug concentration at which Growth Percent=[(Ti−Tz)/(C−Tz)]×100=50. GI50 is the drug concentration resulting in a 50% reduction in the net protein increase compared to the increase in protein in control cells (as measured by SRB staining) during the drug incubation.
The drug concentration resulting in total growth inhibition (TGI) is determined as the drug concentration at which Ti=Tz, which corresponds to a Growth Percent of zero. […]

[2] = test system: 60 cell lines (human tumor cell lines of the cancer screening panel); test: NCI 60 cell line screening, single point dosing at 10 μM (SRB); assay type: cell-based
Procedure: as §5, §6, §7, §8, §9
For the 1-dose 60 cell testing, the Growth Percent is calculated for each cell line/drug combination from the absorbance measurement for the no-drug control (C), the absorbance at time zero (Tz) and the absorbance measurement after incubation of the cells in the presence of drug (Ti): Growth Percent=[(Ti−Tz)/(C−Tz)]×100 for cell line/drug combinations for which Ti≧Tz. Growth Percent=[(Ti−Tz)/Tz]×100 for cell line/drug combinations for which Ti<Tz.
Calculation of the Growth Percent by these equations allows detection of both growth inhibition (Growth Percent values between 0 and 100) and lethality (Growth Percent values less than 0). For example, a Growth Percent value of 100 means no growth inhibition. A Growth Percent value of 40 would mean 60% growth inhibition. A Growth Percent value of 0 means no net growth over the course of the experiment, or “cytostatic”, no change by growth or cell death. A Growth Percent value of −40 would mean 40% lethality. A Growth Percent value of −100 means all cells are dead.
For 1-dose 60 cell testing, the Mean Growth Percent, Delta and Range across all 60 cell lines are also calculated. The Deviation of each cell line/drug combination from the Mean is also calculated and plotted: Deviation=Mean Growth Percent−Growth Percent […]

[3] = five point dosing, 60 cell lines
[4] = single dose 10^−5 M, 60 cell lines
[5] = single point 10 μM, 60 cell lines

For `S=c1c2ncccc2c(-c2ccccn2)nn1C1CCCCC1` [RL-4, 7-cyclohexyl-5-(pyridin-2-yl)pyrido[2,3-d]pyridazine-8(7H)-thione], the GI50 (MCF7 (Breast Cancer)) was 0.353 µM, the CC50 (COLO 205 (Colon Cancer)) was 85.8 µM and the “Growth Percent” value (TK-10 (Renal Cancer)) was 120.12%. The GI50 ([1]; Homo sapiens, five point dosing 10^−8 to 10^−4 M, mean of 60 cell lines, read-out: Mean GI50 for all 60 cell lines) was 20 µM, the CC50 ([1]; Homo sapiens, five point dosing up to 10^−4 M, read-out: LC50 for all other cell lines (except COLO 205)) was > 100 µM and the “toxicity (in words)” value ([1]; concentrations up to 10^−4 M) was “not toxic at the concentrations tested; also recorded: not observed”. For the same compound, the “growth inhibition / anti-proliferative efficacy (in words)” value ([1]; five point dosing 10^−8 to 10^−4 M, 60 cell lines) was “significant growth inhibition across all 60 cell lines; also recorded: anti-proliferative efficacy across a range of 60 cell lines”, the “log10GI50 Delta” value [1, 3] was 1.45 and the “log10GI50 Mean” value [1, 3] was −5.0. For the same compound, the “log10GI50 Range” value [1, 3] was 2.45, the “number of cell lines in which total growth inhibition (growth percent=0, TGI) was achieved” value ([1]; within dosage range tested, of 60 cell lines) was “eight” and the GI50 ([2]; Homo sapiens, single point 10 μM, 22 of 60 cell lines, read-out: GI50 for 22 of 60 cell lines (NCI Results, single point, 10 μM)) was ≤ 10 µM. For the same compound, the LC50 ([2]; Homo sapiens, single point 10 μM, all 60 cell lines, read-out: LC50 for all 60 cell lines tested (NCI Results, single point, 10 μM)) was > 10 µM, the “Delta of Growth Percent across all cell lines” value [2, 4] was 52.07 and the “Mean Growth Percent across all cell lines” value [2, 4] was 59.94%. For the same compound, the “Range of Growth Percent across all cell lines” value [2, 4] was 121.36, the “number of cell lines with Growth Percentages greater than 90%” value ([2]; single dose 10^−5 M, of 60 cell lines) was 6 and the “anti-proliferative effect / growth inhibition (in words)” value [2, 5] was “significant growth inhibition in almost all cell lines; also recorded: has anti-proliferative effects; also recorded: showed cell growth inhibition across the screened cell lines; also recorded: significant growth inhibition in cancer cell lines”. For the same compound, the “toxicity / cell lethality (in words)” value [2, 5] was “relatively non-toxic; also recorded: no associated toxicity; also recorded: No Toxicity is observed” and the “number of cell lines with growth inhibition ≧50%” value ([2]; single point 10 μM, of 60 cell lines tested) was 22.
